These results are taken from patent US11160764B2, “Drug delivery composition containing silyl polymers” (Medherant Limited, priority 2015, dated 2021).

Data set [1] can be described thus: Solubility of drugs in the adhesive compositions / patches. The protocol: Three different grades of composition were employed in solubility experiments: A, B and C (see below). A is the grade which was used for initial studies and further was used as the standard grade for solubility tests.
A sample of composition is pre-heated to 80° C. in a closed cartridge or inert environment to avoid contact with moisture and approximately 10 ml of the composition is added into a beaker and weighed. A desired quantity of drug, preservative and excipients are then added to the mixture. The mixture is mixed until it has been homogenised and is then cast with the help of a heated Meyer bar onto a release liner. Once cast, the layers of composition are cured at 60° C. in a humid environment during 16 hours.
In all experiments benzyl alcohol (BenzOH) was employed as a co-solvent. BenzOH is widely used in both pharmaceutical and cosmetic formulations as a preservative, and therefore its addition is required to improve the shelf life of patches. […] Additionally, it acts as a solvent for drugs improving their dissolution in the polymer matrix compositions. The total amount of BenzOH in all formulations was in a range of 1-3% w/w.
All compounds in the liquid state were added by volume, which was estimated using their specific densities.

For data set [2] the following is noted: cited from earlier work.
Data set [3] can be described thus: Drug release analysis: permeation from patch across Pion membrane in Franz cell. Conditions: patch of the invention, PBS pH 7.4. As to the method: The membrane and patch are then placed in a Franz cell and then a PBS pH 7.4 buffer solution is added. Samples are taken at one hour interval for 8 hours. The amount of drug released is calculated using a validated HPLC/UV-Vis method depending on the drug in question.

Values after ≈ are worked out from the molar mass of the structure shown. Where two headings read alike, the source gives them in different places. Bounds are passed on as bounds.

As to `O=C(Oc1ccccc1C(=O)O)c1ccccc1O` [Salsalate], in data set [1], the “Conc., wt %” value is recorded as >5 wt %; the Max. mass fraction amounted to 10%; the Sol. type entry is listed as “Molecular”; the “Solubility of analgesic drugs in compositions: A” value (“Solubility … in compositions: A” below) is reported as “✓”. Besides, in data set [1], the “Solubility of analgesic drugs in compositions: B” value (“Solubility … in compositions: B” for short) was “✓” and the “Soluble in A” value is recorded as “✓”. Moreover, the Solubility in water in data set [2] is 0.246 mg/mL (≈ 953 µM).

For the molecule `CCCNC(C)C(=O)Nc1ccccc1C` (stereo not drawn) [Prilocaine], in data set [1], the “Distribution of the drug in the patch” value is reported as “uniformly distributed in the patch in a form of micro particles”; the Sol. type result is reported as “Dispersion”; the “Solubility in the standard grade (A) composition, in words” value is listed as “poor solubility”. In addition, the Solubility in water in data set [2] was 0.540 mg/mL (≈ 2450 µM).

As for `CC(C)(C)NCC(O)c1ccc(O)c(CO)c1` (stereo not drawn) [Salbutamol], in data set [1], the Max. mass fraction was determined as 5%, the Sol. type entry is on record as “Molecular” and the “Soluble in A” value was “✓”.

For the molecule `CC(=O)Oc1ccccc1C(=O)O` [Aspirin], in data set [1], the Sol. type result is listed as “Dispersion”.

Consider `[H]/N=C(\N/C(=N/[H])NCCCCCCNC(=N)NC(=N)Nc1ccc(Cl)cc1)Nc1ccc(Cl)cc1` [Chlorhexidine], for which the Sol. type entry in data set [1] was “Molecular”. For the same molecule, the “Solubility in compositions and patches of the invention” value in data set [1] (Medherant patches / compositions of the invention) is ~3.5 % w/w. Also, in data set [1] (grade A composition (Table 5)), the Max. mass fraction was 3.5% and the “Soluble in A” value was “✓”.

For the molecule `CCCN[C@H]1CCc2nc(N)sc2C1` [Pramipexole], the Sol. type entry in data set [1] is “Dispersion”. The Solubility in water in data set [2] is 3.9 mg/mL (≈ 18500 µM).

For `O=C(C1CCCCC1)N1CC(=O)N2CCc3ccccc3C2C1` (stereo not drawn) [Praziquantel], in data set [1], the Max. mass fraction is listed as 10%, the Sol. type entry is on record as “Molecular” and the “Soluble in A” value was “✓”.

For the molecule `C[C@@H]1CC[C@H]2[C@@H](C)C(=O)O[C@@H]3O[C@@]4(C)CC[C@@H]1[C@]32OO4` [Artemisinin], in data set [1], the Max. mass fraction turned out to be 9%, the Sol. type entry is “Molecular” and the “Soluble in A” value is listed as “✓”. Also, the Solubility in water result in data set [2] is on record as “insoluble”.

With `Cn1c(=O)c2c(ncn2C)n(C)c1=O` [Caffeine], the Permeated drug amount was 0.19 μg cm^−2 in data set [3] (sample 1 hours), 2.33 μg cm^−2 in data set [3] (sample 2 hours), 3.26 μg cm^−2 in data set [3] (sample 4 hours) and 21.89 μg cm^−2 in data set [3] (sample 6 hours).

For `CC(C(=O)O)c1cccc(C(=O)c2ccccc2)c1` (stereo not drawn) [Ketoprofen], the Permeated drug amount in data set [3] (sample 1 hours) stood at 0.90 μg cm^−2; in data set [3] (sample 2 hours), 4.59 μg cm^−2; in data set [3] (sample 4 hours), 17.37 μg cm^−2; in data set [3] (sample 6 hours), 35.67 μg cm^−2.

On to `C[C@H]1[C@H](OC(=O)CCC(=O)O)O[C@@H]2O[C@@]3(C)CC[C@H]4[C@H](C)CC[C@@H]1[C@@]24OO3` [Artesunate], for which, in data set [1], the Max. mass fraction amounted to 6%, the Sol. type result is “Molecular” and the “Soluble in A” value is “✓”. In addition, the Solubility in water in data set [2] was 0.056 mg/mL (≈ 146 µM).

For the molecule `C[C@@H]1[C@H](O)[C@@H](C)/C=C/C=C/CC/C=C/C=C/C=C/C=C/C(O[C@H]2O[C@H](C)[C@@H](O)[C@H](N)[C@@H]2O)CC2O[C@](O)(CC(O)C(O)CCC(O)CC(O)CC(O)CC(=O)O[C@H]1C)CC(O)C2C(=O)O` (stereo partly drawn) [Nystatin], in data set [1] (grade A composition (Table 5)), the Sol. type entry is listed as “Molecular” and the “Soluble in A” value is listed as “✓”.

Turning to `Cc1ccc2c(Cl)cc(Cl)c(O)c2n1` [Chlorquinaldol], in data set [1] (grade A composition (Table 5)), the Max. mass fraction is reported as 15%, the Sol. type entry is recorded as “Molecular” and the “Soluble in A” value is “✓”. Moreover, the “Solubility in compositions and patches of the invention, in words” value in data set [1] (grades of the compositions of the invention) is on record as “good dissolution”. Further, the “Concentration / mass fraction in patches can be increased up to” value in data set [1] (patches of the invention) is “up to 15 % w/w”. The Solubility in water result in data set [2] was “insoluble”.

For `O=C(O)Cc1ccccc1Nc1c(Cl)cccc1Cl` [Diclofenac], the Permeated drug amount in data set [3] (sample 1 hours) is listed as 0.11 μg cm^−2; in data set [3] (sample 2 hours), 0.16 μg cm^−2; in data set [3] (sample 4 hours), 0.39 μg cm^−2; in data set [3] (sample 6 hours), 0.47 μg cm^−2.

On to `C[C@]12C=CC(=O)C=C1CC[C@@H]1[C@@H]2[C@@H](O)C[C@@]2(C)[C@H]1CC[C@]2(O)C(=O)CO` [Prednisolone], for which, in data set [1] (grade A composition (Table 5)), the Sol. type result is on record as “Dispersion”.

On to `COc1cc(Cc2cnc(N)nc2N)cc(OC)c1OC` [Trimethoprim], for which the Sol. type result in data set [1] is given as “Dispersion”.

As for `CN(Cc1cnc2nc(N)nc(N)c2n1)c1ccc(C(=O)N[C@@H](CCC(=O)O)C(=O)O)cc1` [Methotrexate], in data set [1], the Sol. type result is on record as “Molecular”. Also, in data set [1] (grade A composition (Table 5)), the Max. mass fraction came out at 7% and the “Soluble in A” value was “✓”. In addition, the Solubility in water result in data set [2] is “insoluble”.

Turning to Ivermectin, in data set [1] (grade A composition (Table 5)), the Max. mass fraction stood at 5%, the Sol. type entry is given as “Molecular” and the “Soluble in A” value is recorded as “✓”.

On to `C[C@]12CC[C@H]3[C@@H](CCC4=CC(=O)CC[C@@]43C)[C@@H]1CC[C@@H]2O` [Testosterone], for which, in data set [1] (grade A composition (Table 5)), the Max. mass fraction is given as 5%, the Sol. type entry is recorded as “Molecular” and the “Soluble in A” value is given as “✓”.

For the molecule `CN1C(C(=O)Nc2ccccn2)=C(O)c2ccccc2S1(=O)=O` [Piroxicam], in data set [1], the Sol. type entry is “Molecular”. Further, in data set [1] (grade A composition), the “Conc., wt %” value is ~2.5 wt % and the “Solubility … in compositions: A” value is “✓”. Further, in data set [1] (grade A composition (Table 5)), the Max. mass fraction is listed as 2.5% and the “Soluble in A” value was “✓”. In data set [1] (grade B composition), the “Conc., wt %” value is ~2.5 wt % and the “Solubility … in compositions: B” value is recorded as “✓”. In addition, in data set [1] (standard grade (A)), the Limited solubility was ~2.5 % w/w.

Turning to `O=C(O)c1ccccc1O` [Salicylic acid], in data set [1], the “Conc., wt %” value is recorded as >5 wt %; the Max. mass fraction is recorded as 30%; the Sol. type result is given as “Molecular”; the “Solubility in the standard grade (A) composition, in words” value was “readily soluble”. Also, in data set [1], the “Solubility … in compositions: A” value is listed as “✓”, the “Solubility … in compositions: B” value is given as “✓” and the “Soluble in A” value is on record as “✓”. In data set [3] (sample 1 hours), the Permeated drug amount worked out at 3.38 μg cm^−2. This molecule had a Permeated drug amount in data set [3] (sample 2 hours) of 11.92 μg cm^−2. In data set [3] (sample 4 hours), the Permeated drug amount is given as 31.75 μg cm^−2. The Permeated drug amount in data set [3] (sample 6 hours) came out at 54.71 μg cm^−2.

For `CC(C)Cc1ccc(C(C)C(=O)O)cc1` (stereo not drawn) [Ibuprofen], the Permeated drug amount in data set [3] (sample 1 hours) is given as 15.46 μg cm^−2; in data set [3] (sample 2 hours) it was 37.23 μg cm^−2; in data set [3] (sample 4 hours), 73.85 μg cm^−2; in data set [3] (sample 6 hours), 99.60 μg cm^−2.

For the molecule `CC(C)[C@@H]1CC[C@@H](C)C[C@H]1O` [Levomenthol], in data set [1], the “Conc., wt %” value was >5 wt % and the Max. mass fraction came out at 30%.

Turning to `CN1CCCC1c1cccnc1` (stereo not drawn) [Nicotine], in data set [1], the “Concentration / mass fraction in patches can be increased up to” value is on record as “up to 30 % w/w”; the Max. mass fraction turned out to be 30%; the Sol. type entry was “Molecular”; the “Solubility in compositions and patches of the invention, in words” value is reported as “freely soluble”. Further, the “Soluble in A” value in data set [1] is recorded as “✓”. In data set [3] (sample 1 hours), this molecule returned a Permeated drug amount of 2.26 μg cm^−2. The same molecule displayed a Permeated drug amount in data set [3] (sample 2 hours) of 5.05 μg cm^−2. In addition, the Permeated drug amount in data set [3] (sample 4 hours) was determined as 13.76 μg cm^−2. This molecule also registered a Permeated drug amount in data set [3] (sample 6 hours) of 18.33 μg cm^−2.

As for `CC1(C)S[C@@H]2[C@H](NC(=O)Cc3ccccc3)C(=O)N2[C@H]1C(=O)O` [Penicillin G], the Sol. type result in data set [1] (grade A composition (Table 5)) is listed as “Dispersion”.
